Experimental data taken from patent US5532223A, “Use of aqueous soluble glucan preparations to stimulate platelet production” (priority 1995, dated 1996).
Like-named read-outs stand apart in the source and are kept apart here.

Tests used:
[1] = system: Human Peripheral Blood Mononuclear Cells (IL-1β); assay: In vitro IL-1β synthesis by human peripheral blood mononuclear cells (radioimmunoassay), stimulation and priming; format: cell-based; conditions: for IL-1β: 24 hours, mean of two donors
Procedure: (§1) Venous blood was obtained from healthy male volunteers and mononuclear cells were fractionated by Ficoll-Hypaque centrifugation. The mononuclear cells were washed, resuspended in endotoxin-free RPMI-1640 culture medium ultrafiltered to remove endotoxins as described elsewhere (Dinarello et al., 1987, J. Clin. Microbiol. 25:1233-8) at a concentration of 5×10^6 cells/ml and were aliquoted into 96-well microtiter plates (Endres et al., 1989, N. E. J. Med. 320:265-271). The cells were then incubated with either 1 ng/ml endotoxin (lipopoly-saccharide, E. coli 055:B5, Sigma, St. Louis), or 10 to 1000 ng/ml PGG, at 37° C. for 24 hours in 5% CO2 and then lysed by three freeze-thaw cycles (Endres et al., 1989, N. E. J. Med. 320:265-271). Synthesis of IL-1β and TNFα were determined by specific radioimmunoassays as described elsewhere (Lisi et al., 1987, Lymph Res. 6:229-244; Lonnemann et al., 1988, Lymph. Res. 7:75-84; Van der Meer et al., 1988, J. Leukocycte Biol. 43:216-223.
(§2) To determine if neutral soluble glucan could act as a priming agent for cytokine synthesis with endotoxin, a known cytokine stimulant, mononuclear cells were pre-incubated with 1, 10, and 1000 ng/ml underivatized, aqueous soluble β-glucan for 3 hours at 37° C. in 5% CO2. The cells were washed to remove neutral soluble glucan and were then incubated with 1 ng/ml endotoxin as described above. IL-1β and TNFα were determined as described above.

[2] = system: Human Peripheral Blood Mononuclear Cells (TNFα); assay: In vitro TNFα synthesis by human peripheral blood mononuclear cells (radioimmunoassay), stimulation and priming; format: cell-based; conditions: for TNFα: 24 hours, mean of two donors
Procedure: as §1, §2

[3] = system: IL-1, TNF, IL-6, IL-8 and GM-CSF; assay: Clinical trial in healthy males: serum cytokines; format: in vivo, human
Procedure: (§3) A randomized, double-blind, placebo-controlled clinical trial was conducted on healthy males to evaluate the safety of neutral soluble glucan (2.25 mg/kg) injected by intravenous infusion compared to a placebo control. […] The results are consistent with the in vitro data reported in the earlier examples.

[4] = human, in vivo, iv
Procedure: as §3

[5] = system: full thickness wounds; assay: Wound healing, full thickness wound in hairless mice; format: in vivo, mouse
Procedure: Wound healing studies were performed on hairless mouse models having full thickness wounds with and without Staphylococcus aureus infection.
Incisions were closed using steel clips at 1 cm intervals.
[…] Two micrograms of neutral soluble glucan/mouse per day was topically applied. Wounds were examined daily and rank-ordered for effectiveness of formulation for enhancement of visual based wound healing each day. Wounds were scored for closure on a scale of 0-5, with 5 indicating the most healing. In one group of mice that served as the infection model, the wound was treated with a culture of 10^7 Staphylococcus aureus 30 minutes after wounding and 2 hrs prior to treatment with the neutral soluble glucan formulation.
Histological evaluation of the wound site of each test group was made. The dermis of the control group (untreated wound) was heavily infiltrated with both lymphocytes and monocytes/macrophages. However, re-epithelialization that occurred at the epidermal layer was incomplete.

[6] = system: β-glucan receptor on human monocytes; assay: Avidity for the glucan receptor: inhibition of monocyte ingestion of zymosan particles; format: cell-based; conditions: for % Inhibition of monocyte ingestion: mean of two experiments
Procedure: Monolayers of human monocytes, prepared on siliconized glass coverslips (Czop et al., 1978, J. […] The monocyte monolayers were then washed twice with 50 ml of RPMI 1640 medium and were layered with 0.25 ml of 4.8×10^6 /ml zymosan particles (Czop and Austen, 1985, J. Immunol., 134:2588-2593). After a 30 minute incubation at 37° C., the monolayers were washed three times with 50 ml of Hank's balanced salt solution to remove noningested zymosan particles. The monolayer were then fixed and stained with Giemsa. The ingestion of zymosan particles by at least 300 monocytes per monolayer was determined by visual observation under a 1000× light microscope.
The percent inhibition of monocyte ingestion was determined by subtracting the percentage of monocytes ingesting targets after pretreatment with the neutral soluble glucan from the percentage ingesting targets after pretreatment with buffer, dividing this number by the percentage ingesting targets after pretreatment with buffer and multiplying by 100.

[7] = system: Staphylococcus aureus; assay: Wound healing, full thickness wound infected with Staphylococcus aureus in hairless mice; format: in vivo, mouse; conditions: wound treated with 10^7 Staphylococcus aureus; topical
Procedure: Wound healing studies were performed on hairless mouse models having full thickness wounds with and without Staphylococcus aureus infection. […] Incisions were closed using steel clips at 1 cm intervals. Formulations of neutral soluble glucan in phosphate buffered saline were applied 30 minutes following wounding and reapplied at 24 hour intervals during the seven day post-operative period. Two micrograms of neutral soluble glucan/mouse per day was topically applied. Wounds were examined daily and rank-ordered for effectiveness of formulation for enhancement of visual based wound healing each day. Wounds were scored for closure on a scale of 0-5, with 5 indicating the most healing. In one group of mice that served as the infection model, the wound was treated with a culture of 10^7 Staphylococcus aureus 30 minutes after wounding and 2 hrs prior to treatment with the neutral soluble glucan formulation.

[8] = water
[9] = system: platelets; assay: Platelet count in irradiated mice; format: in vivo, mouse; conditions: single IV bolus 20 hours prior to 7.5-Gy total-body irradiation, fourteen days after irradiation, FIG. 7
Procedure: The platelet proliferation stimulatory effect of the neutral soluble glucan was tested in an animal model system following irradiation or administration of the chemotherapeutic agent cisplatin.
More specifically, neutral soluble glucan prepared as described in Example 1 was administered to groups of 10 mice in a single IV bolus 20 hours prior to radiation exposure. Mice were bilaterally exposed to a total-body irradiation of 7.5-Gy. Fourteen days after irradiation the mice were sacrificed and whole blood samples were analyzed for peripheral blood counts.

[10] = system: polymicrobic infectious challenge (cecal inoculum); assay: Rat model for intra-abdominal sepsis; format: in vivo; conditions: rats
[11] = system: monocytes and neutrophils (killing activity); assay: Ex vivo microbicidal activity of normal volunteers; format: in vivo, human; conditions: 2.5 mg/kg, normalized with respect to the saline control, N 6
[12] = system: neutrophils; assay: Clinical trial in healthy males: absolute neutrophil counts; format: in vivo, human; conditions: 2.5 mg/kg, N 6
[13] = system: Human Monocytes; assay: TNF-α synthesis by human monocyte monolayers stimulated with glucan preparations (ELISA); format: cell-based; conditions: for TNF-α / TNF-α Mean ± SD: glucan 1 mg/ml; for TNF-α Mean ± SD: Table 3; for TNF-α stimulation (in words): human monocytes, Tables 3 and 4
From the text: Human peripheral blood mononuclear cells were isolated (Janusz et al., (1987), J. Immunol., 138: 3897-3901) from normal citrated and dextran-treated blood, washed in Hank's balanced salts solution (HBSS), lacking calcium, magnesium, and phenol red, and purified by gradient centrifugation on cushions of Ficoll-Paque (Pharmacia Fine Chemicals, Piscataway, N.J.). The mononuclear cells were collected into HBSS, washed twice, resuspended in RPMI 1640 Medium (Gibco, Grand Island, N.Y.) containing 1% heat-inactivated autologous serum (56° C. for 30 min.), and counted on the Coulter counter.
For the preparation of monocyte monolayers, 1 ml of 2.2×10^6 mononuclear cells/ml was plated into wells of 24-well tissue culture plates (CoStar, Cambridge, Mass.), incubated for 1 h at 37° C. in a humidified atmosphere of 5% CO2, and washed three times with RPMI to remove nonadherent cells. A second 1 ml aliquot of 2.2×10^6 mononuclear cells/ml was layered into each well and incubated for 2 hours as described above before removal of the nonadherent cells. By visual enumeration at 40× with an inverted phase microscope and a calibrated reticule, the number of adherent cells for 30 different donors was 0.77±0.20×10^6 per well (mean±SD). By morphology and nonspecific esterase staining, >95% of the adherent cells were monocytes.
Monocyte monolayers were incubated at 37° C. in the CO2 chamber for 0 to 8 h with 0.5 ml of RPMI, 1% heat-inactivated autologous serum, 10 mM HEPES, and 5 mM MgCl2 in the absence and presence of various glucan preparations. The culture supernatant was removed, clarified by centrifugation at 14,000 g for 5 min at 4° C., and stored at -70° C. before assay of cytokines.
The data are expressed as pg per 10^6 monocytes, which was calculated by dividing the quantity of cytokine in 0.5 ml of supernatant by the number of monocytes per well.

[14] = system: monocytes; assay: Clinical trial in healthy males: monocyte counts; format: in vivo, human; conditions: 2.5 mg/kg, N 6
[15] = pre-incubation 10-1000 ng/ml, then endotoxin as co-stimulant
[16] = mice treated topically for three days, in phosphate buffered saline

## poly-(1-6)-β-D-glucopyranosyl-(1-3)-β-D-glucopyranose [Neutral soluble glucan]
[1]; [15]
  priming of IL-1β synthesis compared to endotoxin alone (in words): did not result in any amplification
[1]; stimulant 10 ng/ml
  IL-1β: 0.13 ng/mL
[1]; stimulant 100 ng/ml
  IL-1β: 0.12 ng/mL
[1]; stimulant 1000 ng/ml
  IL-1β: < 0.10 ng/mL
[1]; used alone as stimulant
  IL-1β synthesis over control buffer treated cells (in words): did not induce increased levels
[2]; [15]
  priming of TNFα synthesis compared to endotoxin alone (in words): did not result in any amplification
[2]; stimulant 10 ng/ml
  TNFα: 0.16 ng/mL
[2]; stimulant 100 ng/ml
  TNFα: 0.16 ng/mL
[2]; stimulant 1000 ng/ml
  TNFα: 0.14 ng/mL
[2]; used alone as stimulant
  TNFα synthesis over control buffer treated cells (in words): did not induce increased levels
[3]; 2.25 mg/kg intravenous infusion
  elevation in IL-1, TNF, IL-6, IL-8 and GM-CSF: no observed elevation
[3]; over time, FIGS. 5 and 6
  changes in serum IL-1 and TNF: no changes occurred
[4]
  fever or inflammatory reactions: none of the patients experienced fever or inflammatory reactions
[4]; 2.25 mg/kg
  adverse effects: No adverse effects were observed
[5]; [16]
  histology of wounded tissue: cell infiltration: heavy infiltration of macrophages and lymphocytes
  histology of wounded tissue: tissue integrity: Tissue integrity was good
[5]; topically applied, two micrograms/mouse per day
  wound healing (in words): accelerated wound healing within the dermal layer of the wound
[6]; 50 μg/ml and 500 μg/ml
  receptor binding capacity (in words): higher receptor binding capacity than Peak B
[6]; 50 μg/ml
  % Inhibition of monocyte ingestion: 74%
[6]; 500 μg/ml
  % Inhibition of monocyte ingestion: 86%
[7]
  infection of the wound (in words): effectively eliminated infection
  progression to sepsis (in words): prevented the progression to sepsis
[8]
  aqueous solubility: approximately 100 mg/ml
[8]; pH 13
  aqueous solubility: ~150 mg/mL
[9]
  platelet cell count relative to saline treated control levels: ~3 fold
[10]
  protection from lethal bacterial challenge (in words): protects rats from lethal bacterial challenge
[10]; 100 μg/0.2 ml intramuscularly 24 hours and 4 hours prior to challenge, P vs. Saline <0.01
  Mortality (dead/total): 2/10
[11]; Day 2
  Mean Change in % Killing: 48.96%
[11]; Day 3
  Mean Change in % Killing: 39.22%
[11]; Day 6
  Mean Change in % Killing: 31.17%
[11]; Hour 3
  Mean Change in % Killing: 42.86%
[11]; Hour 6
  Mean Change in % Killing: 32.33%
[11]; Hour 24
  Mean Change in % Killing: 20.90%
[12]; B = Baseline measurement
  Absolute Neutrophil Counts, Mean: 4.11 × 1000/μl
[12]; Hour 8
  Absolute Neutrophil Counts, Mean: 11.29 × 1000/μl
[12]; Hour 12
  Absolute Neutrophil Counts, Mean: 8.18 × 1000/μl
[12]; Hour 24
  Absolute Neutrophil Counts, Mean: 5.32 × 1000/μl
[13]; Table 3, column 1
  TNF-α: 44 pg/10^6 monocytes
[13]; Table 3, column 2
  TNF-α: 51 pg/10^6 monocytes
[13]; Table 3, column 3
  TNF-α: 33 pg/10^6 monocytes
[13]
  TNF-α Mean ± SD: 43 ± 9 pg/10^6 monocytes
  TNF-α stimulation (in words): no stimulation of TNF-α
[13]; Table 4
  TNF-α: 16 pg/10^6 monocytes
[14]; B = Baseline measurement
  Monocyte Counts, Mean: 0.24 × 1000/μl
[14]; Hour 8
  Monocyte Counts, Mean: 0.63 × 1000/μl
[14]; Hour 12
  Monocyte Counts, Mean: 0.67 × 1000/μl
[14]; Hour 24
  Monocyte Counts, Mean: 0.31 × 1000/μl

## Laminarin [reference compound]
[13]; Table 3, column 1
  TNF-α: 372 pg/10^6 monocytes
[13]; Table 3, column 2
  TNF-α: 324 pg/10^6 monocytes
[13]; Table 3, column 3
  TNF-α: 227 pg/10^6 monocytes
[13]
  TNF-α Mean ± SD: 308 ± 74 pg/10^6 monocytes
  TNF-α stimulation (in words): stimulated
[13]; Table 4
  TNF-α: 1312 pg/10^6 monocytes
